Data from US7105515B2, “Derivatives of sulphonamides, their preparation and use as medicaments” (Laboratories Del Dr. Esteve, S.A., priority 2001, dated 2006).
Structures can show the parent of a compound that is named as a salt.

Row | SMILES | melting point
1 | CN1CCC(c2c[nH]c3ccc(NS(=O)(=O)c4cccc5ccccc45)cc23)CC1 (as salt: HCl) [Example 13, N-[3-(1-methylpiperidin-4-yl)-1H-indol-5-yl]naphthalene-1-sulphonamide hydrochloride] | 212 °C (dec.)
2 | CN(C)CCc1c[nH]c2ccc(NS(=O)(=O)c3cccc4ccccc34)cc12 [Example 8, N-[3-(2-dimethylaminoethyl)-1H-indol-5-yl]naphthalene-1-sulphonamide] | 203 to 205 °C
3 | CN1CCC(c2c[nH]c3ccc(NS(=O)(=O)c4ccc(Cl)s4)cc23)CC1 [Example 14, N-[3-(1-methylpiperidin-4-yl)-1H-indol-5-yl]-5-chlorothiophene-2-sulphonamide] | 284 °C (dec.)
4 | CN1CCC(c2c[nH]c3ccc(NS(=O)(=O)c4ccc(-c5ccccc5)cc4)cc23)CC1 [Example 15, N-[3-(1-methylpiperidin-4-yl)-1H-indol-5-yl]-4-phenylbenzenesulphonamide] | 247 to 248 °C
5 | CN1CCC(c2c[nH]c3ccc(NS(=O)(=O)c4cccc5cccnc45)cc23)CC1 [Example 16, N-[3-(1-methylpiperidin-4-yl)-1H-indol-5-yl]quinoline-8-sulphonamide] | 280 °C (dec.)

Next, values leading:

Row | melting point | SMILES
6 | 255 to 257 °C | CCN(CC)CCc1c[nH]c2ccc(NS(=O)(=O)c3cccc4ccccc34)cc12 (as salt: HCl) [Example 3, Hydrochloride N-[3-(2-diethylaminoethyl)-1H-indol-5-yl]naphthalene-1-sulphonamide]
7 | 170 to 173 °C | CCN(CC)CCc1c[nH]c2ccc(NS(=O)(=O)c3sc4ccc(Cl)cc4c3C)cc12 [Example 1, N-[3-(2-diethylaminoethyl)-1H-indol-5-yl]-5-chloro-3-methylbenzo[b]thiophene-2-sulphonamide]
8 | 168 to 170 °C | CCN(CC)CCc1c[nH]c2ccc(NS(=O)(=O)c3cc(Cl)cc(Cl)c3)cc12 [Example 4, N-[3-(2-diethylaminoethyl)-1H-indol-5-yl]-3,5-dichlorobenzenesulphonamide]
9 | 161 to 163 °C | CCN(CC)CCc1c[nH]c2ccc(NS(=O)(=O)c3ccc(-c4ccccc4)cc3)cc12 [Example 5, N-[3-(2-diethylaminoethyl)-1H-indol-5-yl]-4-phenylbenzenesulphonamide]
10 | 180 to 181 °C | CCN(CC)CCc1c[nH]c2ccc(NS(=O)(=O)c3ccc(Cl)s3)cc12 [Example 6, N-[3-(2-diethylaminoethyl)-1H-indol-5-yl]-5-chlorothiophene-2-sulphonamide]
11 | 226 to 227 °C | Cc1c(S(=O)(=O)Nc2ccc3[nH]cc(CCN(C)C)c3c2)sc2ccc(Cl)cc12 [Example 7, N-[3-(2-dimethylaminoethyl)-1H-indol-5-yl]-5-chloro-3-methylbenzo[b]thiophene-2-sulphonamide]
12 | 172 to 173 °C | CCN(CC)CCc1c[nH]c2ccc(NS(=O)(=O)c3ccc4ccccc4c3)cc12 [Example 17, N-[3-(2-diethylaminoethyl)-1H-indol-5-yl]naphthalene-2-sulphonamide]
